Measurements reported in patent publication US20140051722A1, “TOPICAL LFA-1 ANTAGONISTS FOR USE IN LOCALIZED TREATMENT OF IMMUNE RELATED DISORDERS” (SARCODE BIOSCIENCE INC., priority 2008, published 2014).

Legend:
[1] = system: IL-4; assay: SEB-stimulated cytokine release from human PBMC: IL-4; assay type: cell-based; settings: SEB 1 ng/ml
[2] = system: IL-10; assay: SEB-stimulated cytokine release from human PBMC: IL-10; assay type: cell-based; settings: SEB 1 ng/ml
[3] = system: IP-10; assay: SEB-stimulated cytokine release from human PBMC: IP-10; assay type: cell-based; settings: SEB 1 ng/ml
[4] = system: GM-CSF; assay: SEB-stimulated cytokine release from human PBMC: GM-CSF; assay type: cell-based; settings: SEB 1 ng/ml
[5] = system: MCP-1; assay: SEB-stimulated cytokine release from human PBMC: MCP-1; assay type: cell-based; settings: SEB 1 ng/ml
[6] = system: IL-1α; assay: SEB-stimulated cytokine release from human PBMC: IL-1α; assay type: cell-based; settings: SEB 1 ng/ml
[7] = system: IL-1β; assay: SEB-stimulated cytokine release from human PBMC: IL-1β; assay type: cell-based; settings: SEB 1 ng/ml
[8] = system: IL-3; assay: SEB-stimulated cytokine release from human PBMC: IL-3; assay type: cell-based; settings: SEB 1 ng/ml
[9] = system: IL-5; assay: SEB-stimulated cytokine release from human PBMC: IL-5; assay type: cell-based; settings: SEB 1 ng/ml
[10] = system: IL-6; assay: SEB-stimulated cytokine release from human PBMC: IL-6; assay type: cell-based; settings: SEB 1 ng/ml
[11] = system: IL-12p40; assay: SEB-stimulated cytokine release from human PBMC: IL-12p40; assay type: cell-based; settings: SEB 1 ng/ml
[12] = system: IL-13; assay: SEB-stimulated cytokine release from human PBMC: IL-13; assay type: cell-based; settings: SEB 1 ng/ml
[13] = system: Plaque Psoriasis (PASI score); settings: >90% occupancy of LFA-1; cited from earlier work

Compound | EC50 [1] | EC50 [2] | EC50 [3] | EC50 [4] | EC50 [5] | EC50 [6] | EC50 [7] | EC50 [8] | EC50 [9] | EC50 [10] | EC50 [11] | EC50 [12] | clinical improvement in PASI score [13]
O=C(NC(Cc1cc(=O)[nH]c2ccccc12)C(=O)O)c1ccc(Cl)cc1 (stereo not shown) [Rebamipide] | > 1000 µM | > 1000 µM | > 1000 µM | > 1000 µM | > 1000 µM | > 1000 µM | > 1000 µM | > 1000 µM | > 1000 µM | > 1000 µM | > 1000 µM | > 1000 µM | –
efalizumab: anti-LFA-1 monoclonal antibody, clinical trial in plaque psoriasis | – | – | – | – | – | – | – | – | – | – | – | – | greater than 50%
